{"source": "patent US20240287164A1", "about": "“ANTIBODIES SPECIFIC TO NELL2 AND METHODS OF USE” (BOARD OF REGENTS, THE UNIVERSITY OF TEXAS SYSTEM, priority 2021, published 2024)", "system": "BAF complexes", "experiment": "Actin in BAF complexes (immunoprecipitation, phalloidin dot blot and phalloidin pull-down)", "assay_type": "cell-based", "conditions": "A-673 cell nuclear extract", "experimental": "Immunoprecipitation. Immunoprecipitation was performed (Shiio, Y., and Eisenman, R. N. (2003) Histone sumoylation is associated with transcriptional repression. Proc Natl Acad Sci USA). The following antibodies were used: rabbit monoclonal anti-BRG1 (ab110641, Abcam), rabbit monoclonal anti-BAF57 (33360, Cell Signaling Technologies), and mouse monoclonal anti-FLAG M2 (F1804, MilliporeSigma).\nPhalloidin dot blot assays. The BAF complexes were immuno-purified from nuclear extract using anti-BRG1 or anti-BAF57, (for endogenous BAF) or anti-FLAG antibody (for FLAG-BRG1-containing BAF) and were spotted onto a nitrocellulose membrane (sample amount normalized by cell number). The membrane was allowed to dry at room temperature for 30 minutes. The membrane was rinsed with TBST (150 mM NaCl, 20 mM Tris, pH7.4, 0.05% Tween-20), blocked with 5% BSA in TBST, and incubated with Biotin-XX Phalloidin (Biotium) either overnight at 4° C. or for two hours at room temperature followed by three washes with TBST. The membrane was incubated with High Sensitivity Streptavidin-HRP (21130, Pierce/Thermo Fisher) for one hour and was washed three times with TBST, followed by detection with ECL reagent."}
{"smiles": "C/C1=C\\[C@H](C)C[C@H](C)OC(=O)C[C@H](c2ccc(O)cc2)NC(=O)[C@@H](Cc2c(Br)[nH]c3ccccc23)N(C)C(=O)[C@H](C)NC(=O)[C@@H](C)C1", "note": "[Jasplakinolide]", "values": [{"measurement": "BRG1 and BRM pulled down by biotin-conjugated phalloidin", "value": "more BRG1 and BRM are pulled down"}]}
